Records with an inconclusive call do not appear. The source made the active and inactive calls. How the calls were made is not given here; tested in MIN6 cells.
What was measured:
[1] = cell-permeable autofluorescent compounds in GFP channel, dose response, artefact control, imaging, high-content imaging (AID 2124); details: cells, GFP-channel autofluorescence, high-content imaging; cell count; at 10 µM;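 on cell count: cells exposed to compound for 48 hours before fixing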
[2] = system: cells, GFP-channel autofluorescence, high-content imaging; assay: as above

Row | Structure (SMILES) | cell count [1] [cells] | EC50 [2]
1 | COc1ccc(NC(=O)/C(C#N)=C\c2ccc(N3CCOCC3)o2)cc1 | 3270 | 11.6 µM (inactive)
2 | COc1ccc(C2C(C(C)=O)=C(C)N=c3s/c(=C\c4cc(C)n(C)c4C)c(=O)n32)c(OC)c1 (centres undefined) | 3650 | 6.06 µM
3 | Cc1ccc(S(=O)(=O)CCSc2nc(C)cc(C(F)(F)F)c2C#N)cc1 | 2460 | 7.21 µM
4 | COCCN1C(=O)/C(=C/c2ccc(N3CCCC3)cc2)SC1=S | 3330 | 9.79 µM
5 | CN1C(=O)C(=Cc2ccc(N3CCCCC3)o2)C(=O)N(C)C1=S | 2940 | > 16 µM (inactive)
6 | COc1cc(N2CCCC2)c(OC)cc1/C=C(/C#N)c1cccc(F)c1 | 2910 | 6.47 µM
7 | CN1CC=C2C(C#N)=C(N)C(C#N)(C#N)C(c3ccsc3)C2C1 (centres undefined) | 2400 | > 16 µM (inactive)
8 | CCCCN1C(=O)/C(=C/C=C2\SCCN2C)SC1=S | 2930 | 6.67 µM
9 | N#Cc1c(NC(=S)NC(=O)c2ccccc2)sc2c1CCN(CCc1ccccc1)C2 | 2330 | 5.79 µM
10 | C=CCN1C=CC(=CC=C(C#N)C#N)C=C1 | 2960 | 8.1 µM
11 | C/C(=N\Nc1ccc([N+](=O)[O-])cc1)c1cc2ccccc2o1 | 2980 | 8.87 µM
12 | COc1ccc2c(n1)Sc1nc3ccccc3nc1N2 | 3030 | 6.69 µM
13 | CC(=O)c1cc(NC(=O)c2ccc(Cl)cc2)c(=O)oc1/C=C/N(C)C | 2840 | 9.14 µM
14 | CC(C)NC(=O)/C(C#N)=C/c1ccc(N(C)C)o1 | 3230 | 14.3 µM (inactive)
15 | Cc1cc2nc3c(=O)n(C4CCCCC4)c(=O)[nH]c3nc2cc1N | 3150 | 11.8 µM (inactive)
16 | Cc1cc(N2CCCC2)ccc1/C=C1\NC(=S)N(C)C1=O | 2440 | 7.7 µM
17 | Cc1cccn2c(=O)c(/C=C3\SC(=S)NC3=O)c(NCCCN3CCOCC3)nc12 | 2700 | 9.39 µM
18 | Cc1oc(C)c2c(=O)ccc3c(c12)OC(N)=C(C#N)C3c1ccc(F)cc1 (centres undefined) | 2880 | > 16 µM (inactive)
19 | N#C/C(=C/c1ccc(N2CCCCC2)o1)c1cccc(F)c1 | 1730 | 5.32 µM
20 | C=CCN1C(=O)/C(=C\C=C2\N(C)c3ccccc3C2(C)C)SC1=S | 2620 | 6.86 µM
21 | CCN(CC)c1ccc(/C=C/C(=O)c2ccc(Br)cc2)cc1 | 2880 | 3.67 µM
22 | CN1CC=C2C(C#N)=C(N)C(C#N)(C#N)[C@H](c3cccc(Cl)c3)C2C1 (some centres undefined) | 2960 | 9.06 µM

Source: PubChem BioAssay AID2124 (Sanford-Burnham Center for Chemical Genomics, 2009)
